In general, % inhibition refers to the relative decrease from the control value, in per cent.

Results on one compound are retold here after PMC10991380, “Cloning, functional expression, and pharmacological characterization of inwardly rectifying potassium channels (Kir) from Apis mellifera” (Scientific Reports, 2024).

What all share (experiment): two-electrode voltage clamp, Xenopus oocytes
Assay type in all cases: cell-based, Apis mellifera
Common to all, as to details: 96 mM KCl Ringer, pH 7.6; holding potential -80 mV; VU041 in DMSO
Background: In two-electrode clamp one electrode senses voltage and the other passes current.

For one test, the system named is T1, AmKir1.1.
T1 construct: homotetramer; longer N-terminal and shorter C-terminal tail than AmKir2

Another test concerns T2, AmKir2.3.
T2 construct: homotetramer; N-terminal tail 31 residues shorter than AmKir2.2

In another test the test system is T3, AmKir2.2.
T3 construct: homotetramer; N-terminal tail 31 residues longer than AmKir2.3

On to `O=C(Cn1nc(C(F)(F)F)c2c1CCCC2)N1CCCc2ccccc21` [VU041], for which the “% inhibition at 10^-4 M” value in the test with AmKir1.1 turned out to be 48.94 ± 3.79%; in the test with AmKir2.2 it was 45.65 ± 5.01%. In the test with AmKir2.3, the “% inhibition at 10^-5 M” value came out at 24.04 ± 1.92%.
